Measured values: patent US9458181B2, “Cathepsin cysteine protease inhibitors” (Merck Sharp & Dohme Corp., priority 2013, dated 2016)

Columns and labels:
human cathepsin K = human cathepsin K (UniProt P43236); assay: Cathepsin K Assay (hrbCat K); type: biochemical; details: human cathepsin K 0.4 nM, Z-Leu-Arg-AMC 8 μM, pH 5.5, 15 min preincubation; read-out: hrbCat K IP
Outline: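 Human cathepsin K (0.4 nM) in pH 5.5 MES buffer with EDTA, DTT and 10% DMSO was preincubated 15 min at room temperature with compound from a ⅓ dilution series (500-0.025 μM DMSO stocks). Z-Leu-Arg-AMC (8 μM) was then added, and AMC release was followed fluorometrically (Ex 360/Em 460 nm) for 30 min; inhibition was fitted to a dose-response model.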

human cathepsin F = target: T1, human cathepsin F (Homo sapiens, UniProt Q9UBX1); assay: Cathepsin F assay (hCat F); type: biochemical; details: human cathepsin F 10 nM, Z-Phe-Arg-AMC 8 μM, pH 5.5, 15 min preincubation; read-out: hCat F IP
T1 sequence (Q9UBX1 271-484): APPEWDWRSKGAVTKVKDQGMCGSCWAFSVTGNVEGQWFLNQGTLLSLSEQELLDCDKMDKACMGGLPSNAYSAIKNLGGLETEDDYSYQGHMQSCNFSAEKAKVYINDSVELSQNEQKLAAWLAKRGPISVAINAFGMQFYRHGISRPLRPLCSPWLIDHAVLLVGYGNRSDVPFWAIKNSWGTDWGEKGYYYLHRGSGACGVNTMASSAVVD
Outline: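 Human cathepsin F (10 nM) in 50 mM MES pH 5.5, 2.5 mM EDTA, 2.5 mM DTT, 10% DMSO was preincubated 15 min at RT with compounds from a ⅓ DMSO dilution series (500–0.025 μM stocks). Z-Phe-Arg-AMC was added (8 μM as added), and AMC release was read by fluorescence (360/460 nm) for 20 min. Percent inhibition was fitted to a dose-response model.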

Row | SMILES | IC50 (human cathepsin K) | IC50 (human cathepsin F)
1 | N#C[C@@H](NC(=O)[C@@H]1CCCC[C@H]1c1oc(-c2ccc(F)cc2)nc1-c1ccc(N2CCS(=O)(=O)CC2)cc1)C1CCCCC1 [Example 156, (1R,2R)-N-((S)-cyano(cyclohexyl)methyl)-2-(4-(4-(1,1-dioxidothiomorpholino)phenyl)-2-(4-fluorophenyl)oxazol-5-yl)cyclohexanecarboxamide] | 2.41 nM | 179 nM
2 | CC(C)(c1nc(-c2ccc(N3CCS(=O)(=O)CC3)cc2)c([C@@H]2CCCC[C@H]2C(=O)NC2(C#N)CC2)o1)C(F)(F)F [Example 115, (1R,2R)-N-(1-cyanocyclopropyl)-2-(4-(4-(1,1-dioxidothiomorpholino)phenyl)-2-(1,1,1-trifluoro-2-methylpropan-2-yl)oxazol-5-yl)cyclohexanecarboxamide] | 1.34 nM | 1770 nM
3 | N#CC1(NC(=O)[C@@H]2CC3CC3C[C@H]2c2oc(-c3ccc(F)cn3)nc2-c2ccc(N3CCS(=O)(=O)CC3)cc2)CC1 (single isomer, unassigned) [Example 9, (1R,3R,4R,6S or 1S,3R,4R,6R)-N-(1-cyanocyclopropyl)-4-(4-(4-(1,1-dioxidothiomorpholino)phenyl)-2-(5-fluoropyridin-2-yl)oxazol-5-yl)bicyclo[4.1.0]heptane-3-carboxamide] | 3.54 nM | 1180 nM
4 | N#CC1(NC(=O)[C@@H]2CCCC[C@H]2c2oc(C(F)(F)C(F)(F)F)nc2-c2ccc(C(=O)N3CCOCC3)cc2)CC1 [Example 26, (1R,2R)-N-(1-cyanocyclopropyl)-2-(4-(4-(morpholine-4-carbonyl)phenyl)-2-(perfluoroethyl)oxazol-5-yl)cyclohexanecarboxamide] | 3.64 nM | 2960 nM
5 | N#CC1(NC(=O)[C@@H]2CC3CC3C[C@H]2c2oc(-c3ccc(F)cn3)nc2-c2ccc(N3CCS(=O)(=O)CC3)cc2)CC1 (single isomer, unassigned) [Example 8, (1S,3R,4R,6R or 1R,3R,4R,6S)-N-(1-Cyanocyclopropyl)-4-(4-(4-(1,1-dioxidothiomorpholino)phenyl)-2-(5-fluoropyridin-2-yl)oxazol-5-yl)bicyclo[4.1.0]heptane-3-carboxamidc] | 9.56 nM | 1620 nM
6 | Cc1nc(-c2ccc(N3CCS(=O)(=O)CC3)cc2)c([C@@H]2CCCC[C@H]2C(=O)NC2(C#N)CC2)o1 [Example 14, (1R,2R)-N-(1-cyanocyclopropyl)-2-(4-(4-(1,1-dioxidothiomorpholino)phenyl)-2-methyloxazol-5-yl)cyclohexanecarboxamide] | 1.08 nM | 1330 nM
7 | CC1(c2nc(-c3ccc(N4CCS(=O)(=O)CC4)cc3)c([C@@H]3CCCC[C@H]3C(=O)NC3(C#N)CC3)o2)CCC(F)(F)CC1 [Example 52, (1R,2R)-N-(1-cyanocyclopropyl)-2-(2-(4,4-difluoro-1-methylcyclohexyl)-4-(4-(1,1-dioxidothiomorpholino)phenyl)oxazol-5-yl)cyclohexanecarboxamide] | 2.51 nM | 820 nM
8 | N#CC1(NC(=O)[C@@H]2CCCC[C@H]2c2oc(CC(F)(F)F)nc2-c2ccc(N3CCS(=O)(=O)CC3)cc2)CC1 [Example 15, (1R,2R)-N-(1-cyanocyclopropyl)-2-(4-(4-(1,1-dioxidothiomorpholino)phenyl)-2-(2,2,2-trifluoroethyl)oxazol-5-yl)cyclohexanecarboxamide] | 1.8 nM | 640 nM
9 | N#CC1(NC(=O)[C@@H]2CCCC[C@H]2c2oc(C3CCC(F)(F)C3)nc2-c2ccc(N3CCS(=O)(=O)CC3)cc2)CC1 (mixture of isomers) [Example 114, (1R,2R)-N-(1-cyanocyclopropyl)-2-(2-((R and S)-3,3-difluorocyclopentyl)-4-(4-(1,1-dioxidothiomorpholino)phenyl)oxazol-5-yl)cyclohexanecarboxamide] | 1.7 nM | 1520 nM
10 | N#CC1(NC(=O)[C@@H]2CCCC[C@H]2c2oc(-c3ccccc3C3CC3)nc2-c2ccc(N3CCS(=O)(=O)CC3)cc2)CC1 [Example 79, (1R,2R)-N-(1-cyanocyclopropyl)-2-(2-(2-cyclopropylphenyl)-4-(4-(1,1-dioxidothiomorpholino)phenyl)oxazol-5-yl)cyclohexanecarboxamide] | 0.51 nM | 124 nM
11 | C[C@@H](C#N)NC(=O)[C@@H]1CCCC[C@H]1c1oc(-c2ccc(F)cc2)nc1-c1ccc(N2CC[S+]([O-])CC2)cc1 [Example 141, (1R,2R)-N-((S)-1-cyanoethyl)-2-(2-(4-fluorophenyl)-4-(4-(1-oxidothiomorpholino)phenyl)oxazol-5-yl)cyclohexanecarboxamide] | 0.9 nM | 167 nM
12 | N#CC1(NC(=O)[C@@H]2CCCC[C@H]2c2oc(-c3ccccn3)nc2-c2ccc(N3CCS(=O)(=O)CC3)cc2)CC1 [Example 28, (1R,2R)-N-(1-cyanocyclopropyl)-2-(4-(4-(1,1-dioxidothiomorpholino)phenyl)-2-(pyridin-2-yl)oxazol-5-yl)cyclohexanecarboxamide] | 1.26 nM | 1360 nM
13 | N#CC(CC(F)(F)F)NC(=O)[C@@H]1CC(F)(F)CC[C@H]1c1oc(C(F)(F)C(F)(F)F)nc1-c1ccc(C(=O)N2CCOCC2)cc1 (single isomer, unassigned) [Example 142, (1R,2R)-N-((R or S)-1-cyano-3,3,3-trifluoropropyl)-5,5 - difluoro-2-(4-(4-(morpholine-4-carbonyl)phenyl)-2-(perfluoroethyl)oxazol-5-yl)cyclohexanecarboxamide] | 1.06 nM | 446 nM
14 | N#CC1(NC(=O)[C@@H]2CCCC[C@H]2c2oc(-c3cccc(Cl)c3)nc2-c2ccc(N3CCS(=O)(=O)CC3)cc2)CC1 [Example 5, (1R,2R)-2-(2-(3-Chlorophenyl)-4-(4-thiomorpholino-1,1-dioxide-phenyl)oxazol-5-yl)-N-(1-cyanocyclopropyl)cyclohexanecarboxamide] | 0.56 nM | 507 nM
15 | N#CC1(NC(=O)[C@@H]2CCCC[C@H]2c2oc(CC3CCCCC3)nc2-c2ccc(N3CCS(=O)(=O)CC3)cc2)CC1 [Example 51, (1R,2R)-N-(1-cyanocyclopropyl)-2-(2-(cyclohexylmethyl)-4-(4-(1,1-dioxidothiomorpholino)phenyl)oxazol-5-yl)cyclohcxanecarboxamide] | 1.69 nM | 400 nM

Other lines, results leading:

Row | IC50 (human cathepsin K) | IC50 (human cathepsin F) | SMILES
16 | 4.09 nM | 1220 nM | N#CC1(NC(=O)[C@@H]2CCCC[C@H]2c2oc(-c3ccc(F)cc3)nc2-c2ccc(N3CC4CC3CS4(=O)=O)cc2)CC1 (mixture of isomers) [Example 87, (1R,2R)-N-(1-cyanocyclopropyl)-2-(4-(4-((1R,4R and 1S,4S)-2,2-dioxido-2-thia-5-azabicyclo[2.2.1]heptan-5-yl)phenyl)-2-(4-fluorophenyl)oxazol-5-yl)cyclohexanecarboxamide]
17 | 1.36 nM | 511 nM | N#CC1(NC(=O)[C@@H]2CCCC[C@H]2c2oc(-c3ccc(OC(F)(F)F)cc3)nc2-c2ccc(N3CCS(=O)(=O)CC3)cc2)CC1 [Example 61, (1R,2R)-N-(1-cyanocyclopropyl)-2-(4-(4-(1,1-dioxidothiomorpholino)phenyl)-2-(4-(trifluoromethoxy)phenyl)oxazol-5-yl)cyclohexanecarboxamide]
18 | 1.39 nM | 458 nM | N#CC1(NC(=O)[C@@H]2CCCC[C@H]2c2oc(-c3ccc(F)cc3)nc2-c2ccc(N3CC[S+]([O-])CC3)cc2)CC1 [Example 135, (1R,2R)-N-(1-cyanocyclopropyl)-2-(2-(4-fluorophenyl)-4-(4-(1-oxidothiomorpholino)phenyl)oxazol-5-yl)cyclohexanecarboxamide]
19 | 54.5 nM | 416 nM | N#CC1(NC(=O)[C@@H]2CCCC[C@H]2c2oc(-c3ccc(F)cc3)nc2-c2ccc(N3CCS(=O)(=O)CC3)c(Br)c2)CC1 [Example 102, (1R,2R)-2-(4-(3-bromo-4-(1,1-dioxidothiomorpholino)phenyl)-2-(4-fluorophenyl)oxazol-5-yl)-N-(1-cyanocyclopropyl) cyclohexanecarboxamide]
20 | 0.68 nM | 181 nM | N#CC1(NC(=O)[C@@H]2CC(F)(F)CC[C@H]2c2oc(-c3ccc(F)cc3)nc2-c2ccc(C(=O)N3CCOCC3)cc2)CC1 [Example 24, (1R,2R)-N-(1-cyanocyclopropyl)-5,5-difluoro-2-(2-(4-fluorophenyl)-4-(4-(morpholine-4-carbonyl)phenyl)oxazol-5-yl)cyclohexanecarboxamide]
21 | 7.4 nM | 176 nM | CN(C(=O)OC(C)(C)C)c1ccc(-c2nc(-c3ccc(F)cc3)oc2[C@@H]2CCCC[C@H]2C(=O)NC2(C#N)CC2)cc1 [Example 48, tert-butyl (4-(5-((1R,2R)-2-((1-cyanocyclopropyl)carbamoyl)cyclohexyl)-2-(4-fluorophenyl)oxazol-4-yl)phenyl)(methyl)carbamate]
22 | 1.3 nM | 825 nM | N#CC1(NC(=O)[C@@H]2CCCC[C@H]2c2oc(-c3ccc(C(F)(F)F)cc3)nc2-c2ccc(N3CCS(=O)(=O)CC3)cc2)CC1 [Example 65, (1R,2R)-N-(1-cyanocyclopropyl)-2-(4-(4-(1,1-dioxidothiomorpholino)phenyl)-2-(4-(trifluoromethyl)phenyl)oxazol-5-yl)cyclohexanecarboxamide]
